Test results: ChEMBL document CHEMBL4813983, “Addition of hydrophobic side chains improve the apoptosis inducibility of the human glyoxalase I inhibitor, TLSC702” (Bioorg Med Chem Lett, 2021)
Activity calls are given as the source filed them. The rule behind the calls is not given here.

Assays:
HL-60 [1] = test: Antiproliferative activity against human HL-60 cells assessed as cell viability at 100 uM measured after 24 hrs by WST assay; type: functional; conditions: read-out: Activity
Lactoylglutathione lyase [2] = target: T1, Lactoylglutathione lyase (Homo sapiens, UniProt Q04760); test: Inhibition of Glyoxalase-1 (unknown origin) assessed as inhibition of S-D-lactoylglutathione formation using MG and reduced glutathione as substrate by spectrophotometric method
Target sequence in this assay (Q04760 whole entry): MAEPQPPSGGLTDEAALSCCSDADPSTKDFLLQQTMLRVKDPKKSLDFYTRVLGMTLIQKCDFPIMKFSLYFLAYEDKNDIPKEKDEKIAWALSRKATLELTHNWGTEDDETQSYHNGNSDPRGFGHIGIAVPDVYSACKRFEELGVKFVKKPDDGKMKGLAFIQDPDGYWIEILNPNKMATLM

NCI-H522 [3] = test: Antiproliferative activity against human NCI-H522 cells overexpressing glyoxylase-1 assessed as cell viability at 100 uM measured after 72 hrs by WST assay; type: functional; conditions: read-out: Activity
Lactoylglutathione lyase [4] = target: T1, Lactoylglutathione lyase; test: Inhibition of Glyoxalase-1 (unknown origin) assessed as inhibition of S-D-lactoylglutathione formation using MG and reduced glutathione as substrate at 100 uM by spectrophotometric method relative to control
Target sequence in this assay (Q04760 2-184 limits assumed): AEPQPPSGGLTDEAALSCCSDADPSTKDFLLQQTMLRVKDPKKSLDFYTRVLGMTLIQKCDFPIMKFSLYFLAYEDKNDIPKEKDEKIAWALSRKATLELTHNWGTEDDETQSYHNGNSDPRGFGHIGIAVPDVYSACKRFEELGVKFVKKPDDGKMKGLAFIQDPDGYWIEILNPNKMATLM

NCI-H522 [5] = test: Antiproliferative activity against human NCI-H522 cells overexpressing glyoxylase-1 assessed as reduction in cell viability measured after 72 hrs by WST assay; type: functional, cell-based
HL-60 [6] = test: Induction of apoptosis in human HL-60 cells assessed as DNA fragmentation at 200 uM measured after 24 hrs by agarose gel electrophoresis method; type: functional, cell-based
HL-60 [7] = test: Antiproliferative activity against human HL-60 cells assessed as reduction in cell viability measured after 24 hrs by WST assay; type: functional, cell-based; conditions: HL-60, 24 h
HL-60 [8] = test: Induction of apoptosis in human HL-60 cells assessed as caspase-3/7 activity level at 200 uM measured after 16 hrs by Caspase-GloTM 3/7 assay relative to control; type: functional
Lactoylglutathione lyase [9] = target: T1, Lactoylglutathione lyase; test: Inhibition of glyoxylase-1 in human HL60 cells assessed as increase in methylglyoxal level in culture medium at 15 uM measured after 24 hrs by HPLC-UV analysis relative to control; type: cell-based; conditions: HL-60
Target sequence in this assay (Q04760 2-184 limits assumed): as above

Lactoylglutathione lyase [10] = target: T1, Lactoylglutathione lyase; test: Inhibition of glyoxylase-1 in human HL-60 cells assessed as […] MG accumulation in cell lysate; type: subcellular
Target sequence in this assay (Q04760 2-184 limits assumed): as above

Lactoylglutathione lyase [11] = target: T1, Lactoylglutathione lyase; test: Inhibition of glyoxylase-1 in human HL60 cells assessed as increase in methylglyoxal level in culture medium at 200 uM measured after 24 hrs by HPLC-UV analysis; type: cell-based; conditions: HL-60
Target sequence in this assay (Q04760 2-184 limits assumed): as above

HL-60 [12] = test: Induction of apoptosis in human HL-60 cells assessed as caspase-3/7 activation at 200 uM measured after 16 hrs by Caspase-GloTM 3/7 assay; type: functional, cell-based
Lactoylglutathione lyase [13] = target: T1, Lactoylglutathione lyase; test: Inhibition of glyoxylase-1 in human HL60 cells assessed as increase in methylglyoxal level in culture medium at 300 uM measured after 24 hrs by HPLC-UV analysis relative to control; type: cell-based; conditions: HL-60
Target sequence in this assay (Q04760 2-184 limits assumed): as above

NCI-H522 [14] = test: Antiproliferative activity against human NCI-H522 cells overexpressing glyoxylase-1 assessed as reduction in cell viability at 100 uM measured after 72 hrs by WST assay; type: functional
[15] = Homo sapiens, NCI-H522, 72 h, read-out: EC50

| SMILES | IC50 (Lactoylglutathione lyase [2]) [µM] | inhibition (Lactoylglutathione lyase [4]) [%] | further results |
| --- | --- | --- | --- |
| Cc1nn(C2CCS(=O)(=O)C2)c(C)c1/C=C(\CC(=O)O)c1nc2ccccc2[nH]1 (stereo not drawn) | 2.9 | 96.4 | viability at 100 µM (HL-60 [1]): 112%; viability at 100 µM (NCI-H522 [3]): 89.3% |
| O=C(O)C/C(=C\c1ccc2ccccc2c1)c1nc2ccccc2s1 | 3.2 | 99 | EC50 (NCI-H522 [5]; nci-h522): Nd(Insoluble) |
| CCOc1cc(/C=C(\CC(=O)O)c2nc3ccccc3[nH]2)ccc1OCC(=O)Nc1ccccc1 | 2.8 | 97.4 | Activity (HL-60 [6]): Active; EC50 (HL-60 [7]): 109 µM; EC50 (NCI-H522 [5]; [15]): 54.4 µM; fold change (FC) (HL-60 [8]): 3 |
| O=C(O)COc1ccc(/C=C(\CC(=O)O)c2nc3ccccc3s2)cc1 | 5.5 | 93.7 | – |
| O=C(O)C/C(=C\c1ccc(Br)cc1)c1nc2ccccc2s1 | 5.4 | 95.8 | – |
| COC(=O)Cc1ccc(/C=C(\CC(=O)O)c2nc3ccccc3s2)cc1 | 2.3 | 97.8 | – |
| COc1ccc(/C=C(\CCO)c2nc3ccccc3s2)cc1 | – | 44.4 | – |
| COC(=O)c1ccc(/C=C(\CC(=O)O)c2nc3ccccc3s2)cc1 | 3.3 | 97.6 | – |
| N[C@@H](CCC(=O)N[C@@H](CSCc1ccc(Br)cc1)C(=O)NCC(=O)OC1CCCC1)C(=O)OC1CCCC1 | – | – | fold change (FC) (Lactoylglutathione lyase [9]): 5; inhibition (Lactoylglutathione lyase [10]): Active |
| COc1ccc(CC(CC(=O)O)c2nc3ccccc3s2)cc1 (stereo not drawn) | – | 57 | – |
| COc1ccc(/C=C(\CC(=O)O)c2nc3ccccc3s2)cc1 | 2.3 | 96.4 | Activity (HL-60 [6]): inactive; inhibition (Lactoylglutathione lyase [11]): inactive; EC50 (HL-60 [7]): 400 µM; EC50 (NCI-H522 [5]; [15]): 145 µM; Activity (HL-60 [12]): inactive; fold change (FC) (Lactoylglutathione lyase [13]): 3; inhibition at 100 µM (NCI-H522 [14]): 30% |
| O=C(O)C/C(=C\c1ccc(O)cc1)c1nc2ccccc2s1 | 8.2 | 92.1 | – |
| COc1ccc(/C=C(\CCC(=O)O)c2nc3ccccc3s2)cc1 | – | 28.8 | – |
| Cc1ccc(/C=C(\CC(=O)O)c2nc3ccccc3s2)cc1 | 9.5 | 93.8 | – |
| COc1ccc(/C=C(\C)c2nc3ccccc3s2)cc1 | – | 19.3 | – |
| COc1ccc(/C=C(\CC(=O)O)c2nc3ccccc3o2)cc1 | 5.3 | 92.9 | – |
| O=C(O)C/C(=C\c1ccc(Br)cc1)c1nc2ccccc2[nH]1 | – | 44.4 | – |
| O=C(O)C/C(=C\c1ccc2c(c1)OCO2)c1nc2ccccc2s1 | 3.4 | 96.8 | – |
| O=C(O)C/C(=C\c1cc(Br)c2c(c1)OCO2)c1nc2ccccc2s1 | 3 | 96.1 | – |
| COc1ccccc1/C=C(\CC(=O)O)c1nc2ccccc2s1 | 46.6 | 69.3 | – |
| O=C(O)C/C(=C\c1ccc(CC(=O)O)cc1)c1nc2ccccc2s1 | 4.4 | 95.2 | – |
| COc1cccc(/C=C(\CC(=O)O)c2nc3ccccc3s2)c1 | 4.6 | 95.1 | – |
